This note sets out measurements from US12077483B2, “Modified amine lipids” (Intellia Therapeutics, Inc., priority 2018, dated 2024).

Molecules are shown by their SMILES.

Data set [1] is described as follows: pKa of amine lipid by TNS fluorescence. It counts as physicochemical. To be noted: probe TNS (6-(p-toluidino)-2-naphthalenesulfonic acid sodium salt), unformulated amine lipid in ethanol, sodium phosphate buffers -9.0. A digest of the protocol:
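pKa derived from a sigmoidal fit of normalized TNS fluorescence (321 nm excitation, 448 nm emission) versus pH. Lipid from ethanol stock diluted to about 100 μM final in 0.1 M phosphate buffers, pH 4.5–9.0.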

Another data set deals with mouse TTR gene. The data set is described as follows: In vivo editing in mouse liver, LNP with Cas9 mRNA and sgRNA G282, NGS. To be noted: Table 3; guide G282; CD-1 female mice, 0.1 mpk i.v., liver at 6 or 7 days; Exp. 1, 8, 9, 10. How it is done: (§1) LNPs were prepared using various amine lipids in a 4-component lipid system consisting of an ionizable lipid (e.g. an amine lipid), DSPC, cholesterol and PEG-2k-DMG. In assays for percent liver editing in mice, Cas9 mRNA and chemically modified sgRNA targeting a mouse sequence were formulated in LNPs, at either a 1:1 w/w ratio or a 1:2 w/w ratio.
(§2) The lipid components were dissolved in 100% ethanol with the lipid component molar ratios described below. The chemically modified sgRNA and Cas9 mRNA were combined and dissolved in 25 mM citrate, 100 mM NaCl, pH 5.0, resulting in a concentration of total RNA cargo of approximately 0.45 mg/mL. The LNPs were formulated with an N/P ratio of about 6, with the ratio of chemically modified sgRNA: Cas9 mRNA at either a 1:1 or 1:2 w/w ratio as described below.
(§3) CD-1 female mice, ranging from 6-10 weeks of age were used in each study. Animals were weighed and grouped according to body weight for preparing dosing solutions based on group average weight. LNPs were dosed via the lateral tail vein in a volume of 0.2 mL per animal (approximately 10 mL per kilogram body weight). The animals were periodically observed for adverse effects for at least 24 hours post dose.
(§4) For studies measuring in vivo editing in liver, CD-1 female mice were dosed at 0.1 mpk unless otherwise noted. Animals were euthanized at 6 or 7 days by exsanguinationvia cardiac puncture under isoflourane anesthesia. Liver tissue was collected from each animal for DNA extraction and analysis. Blood was collected into serum separator tubes or into tubes containing buffered sodium citrate for plasma as described herein. Cohorts of mice were measured for editing by Next-Generation Sequencing (NGS).
(§5) In brief, to quantitatively determine the efficiency of editing at the target location in the genome, genomic DNA was isolated and deep sequencing was utilized to identify the presence of insertions and deletions introduced by gene editing.
(§6) PCR primers were designed around the target site (e.g., B2M), and the genomic area of interest was amplified. Additional PCR was performed according to the manufacturer's protocols (Illumina) to add the necessary chemistry for sequencing. The amplicons were sequenced on an Illumina MiSeq instrument. The reads were aligned to the relevant reference genome (e.g., GRCm38) after eliminating those having low quality scores. The resulting files containing the reads were mapped to the reference genome (BAM files), where reads that overlapped the target region of interest were selected and the number of wild type reads versus the number of reads which contain an insertion, substitution, or deletion was calculated.
(§7) The editing percentage (e.g., the “editing efficiency” or “percent editing”) is defined as the total number of sequence reads with insertions or deletions over the total number of sequence reads, including wild type.
(§8) We assessed in vivo editing efficiency for materials delivered with formulations including various amine lipid compounds. Editing was measured using either G282 (SEQ ID No: 1) which targets the mouse TTR gene or G650 (SEQ ID No. 2) which targets the mouse B2M gene. Lipids described above were assessed for efficacy through in vivo editing experiments. LNPs were formulated at a 1:1 w/w ratio of sgRNA to Cas9 mRNA, and at an N/P ratio of about 6. Molar concentrations of lipids in the lipid component of the LNPs are expressed as mol % amine lipid/DSPC/cholesterol/PEG-2k-DMG, e.g. 50/10/38.5/1.5. The final LNPs were characterized to determine the encapsulation efficiency, polydispersity index, and average particle size according to the analytical methods provided above. Analysis of average particle size, polydispersity (PDI), total RNA content and encapsulation efficiency of RNA are shown in Table 2.
To assess whether the editing was dose responsive, experiments were performed in vivo at various LNP dose levels. […]

The next data set concerns mouse TTR. In words: Serum TTR ELISA in mice after LNP delivery. The conditions noted are these: Table 3, guide G282, CD-1 female mice, 0.1 mpk i.v.; for Serum TTR: Exp. 1, 8, 9, 10; for Serum TTR % TSS: percentage of vehicle control (TSS). It counts as in vivo. A digest of the protocol: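 Mouse TTR in serum was quantified by ELISA (samples diluted e.g. 10,000- and/or 2,500-fold) 6–7 days after dosing CD-1 females with LNP, typically 0.1 mpk. Values are reported relative to vehicle-treated controls (%).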
For orientation: ELISA stands for enzyme-linked immunosorbent assay.

For another data set, the system named is mouse B2M gene. The data set is described as follows: In vivo editing in mouse liver, LNP with Cas9 mRNA and sgRNA G650, NGS. To be noted: Table 3; guide G650; CD-1 female mice, 0.1 mpk i.v., liver at 6 or 7 days; Exp. 2-7. The protocol: as §1, §2, §3, §4, §5, §6, §7, §8

The term pKa denotes the negative logarithm of the acid dissociation constant. Turning to `CCCCC/C=C\C/C=C\CCCCCCCC(=O)OCC(COC(=O)CCCCCCC/C=C\C/C=C\CCCCC)OC(=O)CCC(CCCCCCCCCCCC)OC(=O)OCCCN(C)CC` (centres unmarked) [Compound 3, 2-((4-(((3-(ethyl(methyl)amino)propoxy)carbonyl)oxy)hexadecanoyl)oxy)propane-1,3-diyl (9Z,9′Z,12Z,12′Z)-bis(octadeca-9,12-dienoate)], the pKa in data set [1] came out at 5.89. In addition, the “Editing Mean % Indel” value in the data set with mouse TTR gene was found to be 23.7%. Further, in the data set on mouse TTR, the “Serum TTR” value turned out to be 691 µg/mL and the “Serum TTR % TSS” value turned out to be 78% TSS.
In the case of `CCCCC/C=C\C/C=C\CCCCCCCC(=O)OCC(COC(=O)CCCCCCC/C=C\C/C=C\CCCCC)OC(=O)CCC(CCCCCCCCCCCC)OC(=O)NCCCN(C)C` (centres unmarked) [Compound 8, 2-((4-(((3-(dimethylamino)propyl)carbamoyl)oxy)hexadecanoyl)oxy)propane-1,3-diyl], the pKa in data set [1] came out at 7.54. Moreover, the “Editing Mean % Indel” value in the data set with mouse TTR gene amounted to 0.1%. In the data set with mouse TTR, the “Serum TTR” value was 745 µg/mL and the “Serum TTR % TSS” value is 84% TSS.
In the case of `CCCCC/C=C\C/C=C\CCCCCCCC(=O)OCC(COC(=O)CCCCCCC/C=C\C/C=C\CCCCC)OC(=O)CCCC(CCCCCCCCCCCC)OC(=O)NCCN(C)CC` (centres unmarked) [Compound 28, 2-((5-(((2-(ethyl(methyl)amino)ethyl)carbamoyl)oxy)heptadecanoyl)oxy) propane-1,3-diyl (9Z,9′Z,12Z,12′Z)-bis(octadeca-9,12-dienoate)], in data set [1], the pKa came out at 6.06. In addition, in the data set on mouse B2M gene, the “Editing Mean % Indel” value came to 17.8%.
For the compound `CCCCC/C=C\C/C=C\CCCCCCCC(=O)OCC(COC(=O)CCCCCCC/C=C\C/C=C\CCCCC)OC(=O)CCCC(CCCCCCCCCCCC)OC(=O)NCC1CCCN1C` (centres unmarked) [Compound 29, 2-((5-((((1-methylpyrrolidin-2-yl)methyl)carbamoyl)oxy)heptadecanoyl)oxy) propane-1,3-diyl (9Z,9′Z,12Z,12′Z)-bis(octadeca-9,12-dienoate)], in data set [1], the pKa was 6.05. The “Editing Mean % Indel” value in the data set with mouse B2M gene was 3.6%.
As for `CCCCC/C=C\C/C=C\CCCCCCCC(=O)OCC(COC(=O)CCC(CCCCCCCCCCCC)OC(=O)OCCCN(C)C)OC(=O)CCCCCCC/C=C\C/C=C\CCCCC` (centres unmarked) [Compound 30, 9-dodecyl-2-methyl-7,12-dioxo-6,8,13-trioxa-2-azahexadecane-15,16-diyl (9Z,9′Z,12Z,12′Z)-bis(octadeca-9,12-dienoate)], the pKa in data set [1] stood at 6.53. Moreover, the “Editing Mean % Indel” value with mouse TTR gene is listed as 10.4%. Further, in the data set with mouse TTR, the “Serum TTR” value was found to be 841 µg/mL and the “Serum TTR % TSS” value was 95% TSS.
On to `CCCCC/C=C\C/C=C\CCCCCCCC(=O)OCC(COC(=O)CCCCCCC/C=C\C/C=C\CCCCC)OC(=O)CCC(CCCCCCCC)OC(=O)OCCCN(C)C` (centres unmarked) [Compound 31, 2-((4-(((3-(dimethylamino)propoxy)carbonyl)oxy)dodecanoyl)oxy)propane-1,3-diyl (9Z,9′Z,12Z,12′Z)-bis(octadeca-9,12-dienoate)], for which the pKa in data set [1] amounted to 6.28. In the data set with mouse B2M gene, the “Editing Mean % Indel” value is 15.6%.
With `CCCCC/C=C\C/C=C\CCCCCCCC(=O)OCC(COC(=O)CCCCCCC/C=C\C/C=C\CCCCC)OC(=O)CCC(CCCCCCCC)OC(=O)OCCCN(CC)CC` (centres unmarked) [Compound 32, 2-((4-(((3-(diethylamino)propoxy)carbonyl)oxy)dodecanoyl)oxy)propane-1,3-diyl (9Z,9′Z,12Z,12′Z)-bis(octadeca-9,12-dienoate)], the pKa in data set [1] stood at 5.64. Further, in the data set on mouse B2M gene, the “Editing Mean % Indel” value is reported as 11.6%.
Take `CCCCC/C=C\C/C=C\CCCCCCCC(=O)OCC(COC(=O)CCCCCCC/C=C\C/C=C\CCCCC)OC(=O)CCC(CCCCCCCC)OC(=O)OCCCN(C)CC` (centres unmarked) [Compound 33, 2-((4-(((3-(ethyl(methyl)amino)propoxy)carbonyl)oxy)dodecanoyl)oxy)propane-1,3-diyl (9Z,9′Z, 12Z, 12′Z)-bis(octadeca-9,12-dienoate)]: in data set [1], the pKa is 5.95. Further, the “Editing Mean % Indel” value in the data set with mouse B2M gene was 20.0%.
With `CCCCC/C=C\C/C=C\CCCCCCCC(=O)OCC(COC(=O)CCCCCCC/C=C\C/C=C\CCCCC)OC(=O)CCC(CCCCCCCC)OC(=O)N(C)CCN(C)C` (centres unmarked) [Compound 38, 2-((4-(((2-(dimethylamino)ethyl)(methyl)carbamoyl)oxy)dodecanoyl)oxy) propane-1,3-diyl (9Z,9′Z,12Z,12′Z)-bis(octadeca-9,12-dienoate)], in data set [1], the pKa turned out to be 5.62. Besides, in the data set on mouse TTR gene, the “Editing Mean % Indel” value is listed as 26.7%. For the same compound, in the data set on mouse TTR, the “Serum TTR” value was 301 µg/mL and the “Serum TTR % TSS” value is 39% TSS.
Take `CCCCC/C=C\C/C=C\CCCCCCCC(=O)OCC(COC(=O)CCCCCCC/C=C\C/C=C\CCCCC)OC(=O)CCC(OC(=O)NCCN(C)CC)C1CCCCC1` (centres unmarked) [Compound 41, 2-((4-cyclohexyl-4-(((2-(ethyl(methyl)amino)ethyl)carbamoyl)oxy)butanoyl)oxy) propane-1,3-diyl (9Z,9′Z,12Z,12′Z)-bis(octadeca-9,12-dienoate)]: the pKa in data set [1] was 6.51. Further, the “Editing Mean % Indel” value with mouse TTR gene amounted to 28.8%. Moreover, in the data set with mouse TTR, the “Serum TTR” value is 393 µg/mL and the “Serum TTR % TSS” value was 48% TSS.
The matching figures for `CCCCC/C=C\C/C=C\CCCCCCCC(=O)OCC(COC(=O)CCCCCCC/C=C\C/C=C\CCCCC)OC(=O)CCC(CCCC)OC(=O)NCCN(C)CC` (centres unmarked) [Compound 42, 2-((4-(((2-(ethyl(methyl)amino)ethyl)carbamoyl)oxy)octanoyl)oxy)propane-1,3-diyl (9Z,9′Z,12Z,12′Z)-bis(octadeca-9,12-dienoate)]: 6.52, 21.6%, 473 µg/mL and 58% TSS.
On the same counts, the results for `CCCCC/C=C\C/C=C\CCCCCCCC(=O)OCC(COC(=O)CCCCCCC/C=C\C/C=C\CCCCC)OC(=O)NCCN(C)CC` [Compound 114, 2-(((2-(ethyl(methyl)amino)ethyl)carbamoyl)oxy)propane-1,3-diyl (9Z,9′Z,12Z,12′Z)-bis(octadeca-9,12-dienoate), reference compound] are 6.93, 0.8%, 637 µg/mL and 78% TSS.
